Starred links: 1 amine or outer side, 2 acyl side, 3 side chain; linkers in the order of their positions; H or OH if unused. Positions of bridges follow the written chain, without caps; N, C: chain ends. Non-standard residues stand in square brackets, D forms with d. Residues, ends and D or L forms follow the SMILES beside them. No end group written: not given here. ACHC(1S,2S) = O=C([C@H]1CCCC[C@@H]1N[*:1])[*:2]; X1 = O=C([C@@H]1CCC[C@H]1N[*:1])[*:2]; X2 = O=C([C@H]1CCC[C@@H]1N[*:1])[*:2]
T1: human factor XIIa (activated blood coagulation factor XII) (human, UniProt P00748 20-615, limits assumed, biotinylated (site not stated))
T1 construct: The construct used for SPR, for the Ki assay and for the cocrystal is not described; The same entry is used for all three; also called FXIIa; FXIIA
T1 sequence (looked up): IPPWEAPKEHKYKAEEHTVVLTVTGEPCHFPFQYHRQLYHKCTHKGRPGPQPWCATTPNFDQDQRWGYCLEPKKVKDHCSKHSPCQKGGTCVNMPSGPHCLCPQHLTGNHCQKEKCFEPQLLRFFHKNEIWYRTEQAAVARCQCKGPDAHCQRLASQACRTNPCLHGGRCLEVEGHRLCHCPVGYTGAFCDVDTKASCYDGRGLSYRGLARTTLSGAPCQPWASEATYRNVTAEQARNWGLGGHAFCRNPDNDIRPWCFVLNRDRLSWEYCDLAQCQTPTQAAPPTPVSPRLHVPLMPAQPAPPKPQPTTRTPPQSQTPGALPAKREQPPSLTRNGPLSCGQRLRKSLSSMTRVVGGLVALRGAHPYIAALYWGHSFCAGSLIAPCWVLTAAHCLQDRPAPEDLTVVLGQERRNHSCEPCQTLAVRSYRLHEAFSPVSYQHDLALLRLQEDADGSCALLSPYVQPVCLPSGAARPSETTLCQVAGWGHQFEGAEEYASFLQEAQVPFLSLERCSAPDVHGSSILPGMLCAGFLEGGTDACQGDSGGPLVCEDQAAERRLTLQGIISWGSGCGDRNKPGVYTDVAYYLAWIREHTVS


Key:
[1] = target: interferon γ receptor 1 (IFNGR1) (Homo sapiens, UniProt P15260); test: biochemical; conditions: for kon: read-out: ka
[2] = target: human factor XIIa (FXIIa) (Homo sapiens, UniProt P00748); test: biochemical; conditions: for kon: read-out: ka
FXIIa = FXIIa (Homo sapiens, UniProt P00748); test: biochemical
[3] = target: human factor XIIa (activated blood coagulation factor XII) (human) (UniProt P00748); test: SPR, Biacore T200, 25 C, single cycle kinetics, 1:1 model
[4] = target: T1, human factor XIIa (activated blood …); test: inhibition of FXIIa cleavage of the chromogenic substrate S-2302 (H-D-Pro-Phe-Arg-pNA), absorbance at 405 nm
[5] = target: T1, human factor XIIa (activated blood …); test: SPR, Biacore T200, 25 C, single cycle kinetics, 1:1 model
[6] = target: T1, human factor XIIa (activated blood …); test: SPR, Biacore T200, 25 C, single cycle kinetics, 1:1 model; peptide F2A (drawing CHEM-US-00044, read number 0), control variant of F2

Molecule | Kd [1] [nM] | kon [1] [M⁻¹ s⁻¹] | kon [2] [M⁻¹ s⁻¹] | other results
CC(C)C[C@@H]1NC(=O)[C@H](C)NC(=O)[C@H](Cc2ccccc2)NC(=O)[C@@H](Cc2ccc(O)cc2)NC(=O)CSC[C@H](C(=O)NCC(N)=O)NC(=O)[C@H](CCCNC(=N)N)NC(=O)[C@H](CCCNC(=N)N)NC(=O)[C@H](CC(N)=O)NC(=O)[C@H]2CCCC[C@@H]2NC(=O)[C@H](CCCNC(=N)N)NC(=O)[C@@H]2CCC[C@H]2NC(=O)[C@H](CC(N)=O)NC1=O [I1-5] ({CH2CO}-[dY]FALN[X1]R[ACHC(1S,2S)]NRR[dC]G-NH2; thioether N-12) | 336 | 3.01e+06 | – | –
CC(C)[C@@H]1NC(=O)CNC(=O)[C@H](Cc2ccccc2)NC(=O)[C@@H](Cc2ccc(O)cc2)NC(=O)CSC[C@H](C(=O)NCC(N)=O)NC(=O)[C@H]([C@@H](C)O)NC(=O)[C@H](CCCNC(=N)N)NC(=O)[C@H](CC(N)=O)NC(=O)[C@H](Cc2ccc(O)cc2)NC(=O)[C@H](Cc2ccccc2)NC(=O)[C@@H]2CCC[C@H]2NC(=O)[C@H](CCCNC(=N)N)NC1=O [I1-1] ({CH2CO}-[dY]FGVR[X1]FYNRT[dC]G-NH2; thioether N-12) | 5 | 1.74e+06 | – | –
CC(C)C[C@@H]1NC(=O)[C@H](CCCNC(=N)N)NC(=O)[C@H](C)NC(=O)[C@H](CCCNC(=N)N)NC(=O)[C@H]([C@@H](C)O)NC(=O)[C@H](CO)NC(=O)[C@H](CCCNC(=N)N)NC(=O)[C@H](CC(=O)O)NC(=O)[C@H](CC(N)=O)NC(=O)[C@@H](Cc2ccc(O)cc2)NC(=O)CSC[C@H](C(N)=O)NC(=O)[C@H](C)NC(=O)[C@H](C(C)C)NC1=O [F1A] ({CH2CO}-[dY]NDRSTRARLVA[dC]-NH2; thioether N-13) | – | – | 580000 | –
CC(C)[C@@H]1NC(=O)CNC(=O)[C@H](Cc2ccccc2)NC(=O)[C@@H](Cc2ccc(O)cc2)NC(=O)CSC[C@H](C(=O)NCC(N)=O)NC(=O)[C@H]([C@@H](C)O)NC(=O)[C@H](CCCNC(=N)N)NC(=O)[C@H](CC(N)=O)NC(=O)[C@H](Cc2ccc(O)cc2)NC(=O)[C@H](Cc2ccccc2)NC(=O)[C@@H]2CCC[C@H]2NC(=O)[C@H]2CCC[C@@H]2NC1=O [I1-6] ({CH2CO}-[dY]FGV[X2][X1]FYNRT[dC]G-NH2; thioether N-12) | 1.87 | 920000 | – | –
CC(C)C[C@@H]1NC(=O)[C@H]2CCCC[C@@H]2NC(=O)[C@H](CCCNC(=N)N)NC(=O)[C@H](CCCNC(=N)N)NC(=O)[C@H](CC(=O)O)NC(=O)[C@H](Cc2ccc(O)cc2)NC(=O)[C@H](C)NC(=O)[C@H](Cc2ccccc2)NC(=O)[C@@H](Cc2ccc(O)cc2)NC(=O)CSC[C@H](C(=O)NCC(N)=O)NC(=O)[C@H](Cc2ccc(O)cc2)NC(=O)[C@H](CC(N)=O)NC(=O)[C@H](CCCNC(=N)N)NC(=O)[C@H]2CCCC[C@@H]2NC(=O)[C@H](CC(N)=O)NC(=O)[C@H](CC(N)=O)NC(=O)[C@H](CO)NC1=O [F3] ({CH2CO}-[dY]FAYDRR[ACHC(1S,2S)]LSNN[ACHC(1S,2S)]RNY[dC]G-NH2; thioether N-17) | – | – | 1.59e+06 | –
CC(C)C[C@@H]1NC(=O)[C@H](Cc2ccc(O)cc2)NC(=O)[C@H](CO)NC(=O)[C@H](C)NC(=O)[C@H](CC(N)=O)NC(=O)[C@H](Cc2ccccc2)NC(=O)[C@H](CC(C)C)NC(=O)[C@H](CCCNC(=N)N)NC(=O)[C@@H]2CCCN2C(=O)[C@@H](Cc2ccc(O)cc2)NC(=O)CSC[C@H](C(N)=O)NC(=O)[C@H](CCCNC(=N)N)NC(=O)[C@H](CCCNC(=N)N)NC1=O [F2A] ({CH2CO}-[dY]PRLFNASYLRR[dC]-NH2; thioether N-13) | – | – | 4.75e+06 | –
CC(C)C[C@@H]1NC(=O)[C@H](CCCNC(=N)N)NC(=O)[C@H](CC(N)=O)NC(=O)[C@H]2CCCC[C@@H]2NC(=O)[C@H]([C@@H](C)O)NC(=O)[C@H](Cc2ccc(O)cc2)NC(=O)[C@H](CCCNC(=N)N)NC(=O)[C@@H](Cc2ccc(O)cc2)NC(=O)CSC[C@H](C(=O)NCC(N)=O)NC(=O)[C@H](C)NC(=O)[C@H](CC(N)=O)NC(=O)[C@H]2CCCC[C@@H]2NC(=O)[C@H](Cc2ccccc2)NC1=O [F4] ({CH2CO}-[dY]RYT[ACHC(1S,2S)]NRLF[ACHC(1S,2S)]NA[dC]G-NH2; thioether N-13) | – | – | 550000 | Kd [2]: 15.5 nM; Ki (FXIIa): 4.32 nM
CC(C)C[C@@H]1NC(=O)[C@H](Cc2ccc(O)cc2)NC(=O)[C@H](CO)NC(=O)[C@@H]2CCC[C@H]2NC(=O)[C@H](CC(N)=O)NC(=O)[C@H](Cc2ccccc2)NC(=O)[C@H](CC(C)C)NC(=O)[C@H](CCCNC(=N)N)NC(=O)[C@@H]2CCCN2C(=O)[C@@H](Cc2ccc(O)cc2)NC(=O)CSC[C@H](C(=O)NCC(N)=O)NC(=O)[C@H](CCCNC(=N)N)NC(=O)[C@H](CCCNC(=N)N)NC1=O [F2] ({CH2CO}-[dY]PRLFN[X1]SYLRR[dC]G-NH2; thioether N-13) | – | – | 3.07e+07 | Kd [2]: 0.58 nM; Ki (FXIIa): 2.14 nM
CC(C)C[C@@H]1NC(=O)[C@H](CO)NC(=O)[C@H](Cc2ccccc2)NC(=O)[C@@H](Cc2ccc(O)cc2)NC(=O)CSC[C@H](C(=O)NCC(N)=O)NC(=O)CNC(=O)[C@H](CCCNC(=N)N)NC(=O)[C@H](CO)NC(=O)[C@H](CCCNC(=N)N)NC(=O)[C@H](CC(N)=O)NC(=O)[C@H](Cc2ccccc2)NC(=O)[C@H](CO)NC(=O)[C@@H]2CCC[C@H]2NC(=O)[C@H](CCCNC(=N)N)NC1=O [I1-4] ({CH2CO}-[dY]FSLR[X1]SFNRSRG[dC]G-NH2; thioether N-14) | 5.76 | 3.39e+06 | – | –
CC(C)C[C@@H]1NC(=O)CNC(=O)[C@H](C(C)C)NC(=O)[C@@H](Cc2ccc(O)cc2)NC(=O)CSC[C@H](C(=O)NCC(N)=O)NC(=O)[C@H]([C@@H](C)O)NC(=O)[C@H](CCCNC(=N)N)NC(=O)[C@H](CC(N)=O)NC(=O)[C@H](CC(C)C)NC(=O)[C@H](CO)NC(=O)[C@@H]2CCC[C@H]2NC(=O)[C@H](CC(N)=O)NC1=O [I1-3] ({CH2CO}-[dY]VGLN[X1]SLNRT[dC]G-NH2; thioether N-12) | 150 | 1.41e+06 | – | –
CC(C)C[C@@H]1NC(=O)[C@H](CC(N)=O)NC(=O)[C@H](Cc2ccc(O)cc2)NC(=O)[C@H](CCCNC(=N)N)NC(=O)[C@@H]2CCCN2C(=O)[C@@H](Cc2ccc(O)cc2)NC(=O)CSC[C@H](C(=O)NCC(N)=O)NC(=O)[C@H](CC(N)=O)NC(=O)[C@@H]2CCC[C@H]2NC(=O)[C@H](Cc2ccccc2)NC(=O)[C@H](CCCNC(=N)N)NC(=O)[C@@H]2CCCN2C(=O)[C@H](CO)NC(=O)[C@H](C)NC(=O)CNC(=O)[C@H]2CCC[C@@H]2NC1=O [I2] ({CH2CO}-[dY]PRYNL[X2]GASPRF[X1]N[dC]G-NH2; thioether N-16) | 12.3 | 1.98e+06 | – | –
CC(C)C[C@@H]1NC(=O)[C@H](CCCNC(=N)N)NC(=O)[C@@H]2CCC[C@H]2NC(=O)[C@H](CCCNC(=N)N)NC(=O)[C@H]([C@@H](C)O)NC(=O)[C@H](CO)NC(=O)[C@H](CCCNC(=N)N)NC(=O)[C@H](CC(=O)O)NC(=O)[C@H](CC(N)=O)NC(=O)[C@@H](Cc2ccc(O)cc2)NC(=O)CSC[C@H](C(=O)NCC(N)=O)NC(=O)[C@H](C)NC(=O)[C@H](C(C)C)NC1=O [F1] ({CH2CO}-[dY]NDRSTR[X1]RLVA[dC]G-NH2; thioether N-13) | – | – | 2.74e+06 | Kd [2]: 8.21 nM; Ki (FXIIa): 22.1 nM
YPRLFNXSYLRRC (not fully specified; 1: D-Tyr, N-acetylated (from N-chloroacetyl-D-Tyr), thioether to D-Cys 13 (cyclic peptide); 7 (X, printed '2'): (1R,2R)-2-ACPC; 13: D-Cys) [F2] | – | – | – | koff [3]: 0.0178 s⁻¹
{CH2CO}-[dY]FAYDRR[ACHC(1S,2S)]LSNN[ACHC(1S,2S)]RNY[dC] (thioether N-17, Made by solid-phase synthesis with the C-terminal TGTGT linker omitted; The formula f3 in the summary and claims ends in RNT; also called yFAYDRR1LSNN1RNYc) [F3] | – | – | – | Ki [4]: 1.02 nM; Kd [5]: 0.98 nM; koff [5]: 0.0016 s⁻¹
{CH2CO}-[dY]NDRSTRARLVA[dC] (thioether N-13, also called negative control peptide of F1; Ala mutant F1A) [F1A] | – | – | – | Kd [5]: 51.3 nM; koff [5]: 0.0297 s⁻¹
YNDRSTRXRLVAC (not fully specified; 1: D-Tyr, N-acetylated (from N-chloroacetyl-D-Tyr), the acetyl joined by a thioether bond to the thiol of D-Cys 13 (cyclic peptide); 8 (X, printed '2'): (1R,2R)-2-ACPC; 13: D-Cys) [F1] | – | – | – | koff [3]: 0.0225 s⁻¹
YRYTXNRLFXNAC (not fully specified; 1: D-Tyr, N-acetylated (from N-chloroacetyl-D-Tyr), thioether to D-Cys 13 (cyclic peptide); 5 and 10 (X, printed '1'): (1S,2S)-2-ACHC; 13: D-Cys) [F4] | – | – | – | koff [3]: 0.0085 s⁻¹
{CH2CO}-[dY]PRLFNASYLRR[dC] (thioether N-13, also called negative control peptide of F2) [F2A] | – | – | – | Kd [6]: 92.2 nM; koff [5]: 0.438 s⁻¹

— patent publication US20230117920A1, “Library Construction Method, Cyclic Peptide, FXIIa Binder and IFNGR1 Binder” (The University of Tokyo, priority 2019, published 2023)
